# Assay results from the NIST ThermoML archive (doi:10.1016/j.fluid.2006.10.025).
# Values joined by “and” are separate entries in the source; they are usually repeats but may differ in a detail not shown here. Equal values may be shown once. ± gives the expanded uncertainty stated by the source.
# Conditions: 101.33 kPa, Liquid
smiles,measurement,setting,value
"OCC(F)(F)C(F)(F)C(F)(F)C(F)(F)C(F)(F)C(F)F [1,1,7-trihydrododecafluoroheptan-1-ol]",mass density,293.15 K,1750.1 ± 7.8 kg/m3 and 1750.2 ± 7.8 kg/m3
same,mass density,303.15 K,1732.7 ± 7.6 kg/m3
same,mass density,313.15 K,1715 ± 7.4 kg/m3
same,mass density,323.15 K,1696.9 ± 7.3 kg/m3
same,mass density,333.15 K,1678.5 ± 7.1 kg/m3
same,mass density,343.15 K,1659.7 ± 6.9 kg/m3
